In ChEMBL document CHEMBL1909577, “Discovery of 3-hydroxy-4-cyano-isoquinolines as novel, potent, and selective inhibitors of human 11β-hydroxydehydrogenase 1 (11β-HSD1)” (Bioorg Med Chem Lett, 2011):
≈ marks a conversion by molar mass, not a printed value.

Experiments:
[1] = Inhibition of cynomolgus monkey 11beta-HSD1; set-up: species or system Macaca fascicularis
[2] = Aqueous solubility of the compound; format: physicochemical
[3] = Cmax in Balb/C mouse at 10 umol/kg, po; format: ADME, organism-based; set-up: dose 10 umol/kg, route oral; settings: in vivo
[4] = Tmax in Balb/C mouse at 10 umol/kg, po; format: ADME, organism-based; settings: in vivo
[5] = AUC (0 to 8 hrs) in Balb/C mouse at 10 umol/kg, po; format: ADME, organism-based; set-up: time < 8 hr, dose 10 umol/kg, route oral; settings: plasma
[6] = test system: Liver microsomes; settings: human, 10 min, 300 µM
Description: Metabolic stability of the compound in human liver microsomes assessed as stability rate per mg of protein at 300 uM after 10 mins by LC-MS/MS analysis in presence of NADPH

[7] = test system: Liver; settings: mouse, microsomes, 10 min, 300 µM
Description: Metabolic stability of the compound in mouse liver microsomes assessed as stability rate per mg of protein at 300 uM after 10 mins by LC-MS/MS analysis in presence of NADPH

[8] = test system: Liver microsomes; settings: rat, 10 min, 300 µM
Description: Metabolic stability of the compound in rat liver microsomes assessed as stability rate per mg of protein at 300 uM after 10 mins by LC-MS/MS analysis in presence of NADPH

[9] = test system: UDP-glucuronosyltransferase (Mus musculus); experiment: in vitro; settings: human, liver microsomes
[10] = biological target: T1, 11-beta-hydroxysteroid dehydrogenase 1 (Mus musculus, UniProt P50172); experiment: Inhibition of mouse 11beta-HSD1
[11] = biological target: T1, 11-beta-hydroxysteroid dehydrogenase 1; experiment: Inhibition of 11beta-HSD1 in mouse 3T3L1 cells; format: cell-based, 3T3-L1
[12] = biological target: 11-beta-hydroxysteroid dehydrogenase 1 (Homo sapiens, UniProt P28845); experiment: Inhibition of human 11beta-HSD1 expressed in HEK293 cells assessed as conversion of [3H]-cortisone to [3H]-cortisol by scintillation plate reader; format: cell-based
[13] = biological target: T2, 11-beta-hydroxysteroid dehydrogenase type 2 (Homo sapiens, UniProt P80365); experiment: Inhibition of 11beta-HSD2
T2 sequence (P80365 whole entry): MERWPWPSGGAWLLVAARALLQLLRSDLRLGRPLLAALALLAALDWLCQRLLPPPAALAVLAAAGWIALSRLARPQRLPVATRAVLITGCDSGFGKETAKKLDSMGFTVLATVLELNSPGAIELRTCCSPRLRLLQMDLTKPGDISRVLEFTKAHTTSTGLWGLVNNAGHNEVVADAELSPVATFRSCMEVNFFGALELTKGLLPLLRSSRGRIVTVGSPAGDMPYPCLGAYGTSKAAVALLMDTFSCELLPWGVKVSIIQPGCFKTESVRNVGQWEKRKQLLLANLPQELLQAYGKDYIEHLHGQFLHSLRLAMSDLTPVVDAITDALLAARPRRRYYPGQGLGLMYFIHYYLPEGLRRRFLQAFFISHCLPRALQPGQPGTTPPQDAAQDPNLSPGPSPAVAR

T1 sequence (P50172 whole entry): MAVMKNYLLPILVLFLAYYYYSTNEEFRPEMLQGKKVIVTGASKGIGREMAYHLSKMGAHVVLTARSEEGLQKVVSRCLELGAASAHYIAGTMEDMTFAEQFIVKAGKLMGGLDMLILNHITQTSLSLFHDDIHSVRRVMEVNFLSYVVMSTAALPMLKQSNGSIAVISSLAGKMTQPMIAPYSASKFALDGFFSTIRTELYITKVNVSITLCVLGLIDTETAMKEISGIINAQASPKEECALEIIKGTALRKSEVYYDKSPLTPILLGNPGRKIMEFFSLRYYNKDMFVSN
11-beta-hydroxysteroid dehydrogenase 1 (Homo sapiens, UniProt P28845), sequence (P28845 whole entry): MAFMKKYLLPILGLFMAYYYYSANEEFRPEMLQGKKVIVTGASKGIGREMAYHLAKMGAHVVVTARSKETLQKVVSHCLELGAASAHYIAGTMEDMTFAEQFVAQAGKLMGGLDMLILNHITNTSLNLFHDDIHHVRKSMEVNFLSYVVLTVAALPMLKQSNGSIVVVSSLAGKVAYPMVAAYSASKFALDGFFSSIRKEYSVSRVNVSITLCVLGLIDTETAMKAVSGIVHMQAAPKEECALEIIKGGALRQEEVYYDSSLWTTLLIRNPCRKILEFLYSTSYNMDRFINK

Row | SMILES | IC50 [1] | solubility [2] | Cmax [3] | Tmax [4] | AUC(0-t) at 8 h [5] | Stability [6] | Stability [7] | Stability [8] | half-life [9] | IC50 [10] | IC50 [11] | IC50 [12] | IC50 [13]
1 | N#Cc1c(O)nc(SCc2ccccc2Cl)c2c1CCCC2 | 1 nM | 6 µg/mL (≈ 18.1 µM) | 30 nM | 1 h | 0.2 µM·h | 0.09 nmol/min | 0.17 nmol/min | 0.16 nmol/min | < 1 min |  |  |  | 
2 | N#Cc1c(O)nc(SCc2ccccc2-c2ccccc2)c2c1CCCC2 |  |  |  |  |  |  |  |  |  | 145 nM |  |  | 
3 | Oc1cc2c(c(SCc3ccccc3Cl)n1)CCCC2 |  |  |  |  |  | 0.27 nmol/min | 0.3 nmol/min | 0.3 nmol/min |  | 9250 nM |  |  | 
4 | N#Cc1c(O)nc(S(=O)(=O)Cc2ccccc2Cl)c2c1CCCC2 |  |  |  |  |  | 0.07 nmol/min | 0.12 nmol/min | 0.14 nmol/min |  | 267 nM |  |  | 
5 | N#Cc1c(O)nc(SCc2ccc(Cl)cc2)c2c1CCCC2 |  | 1 µg/mL (≈ 3.02 µM) |  |  |  | 0.09 nmol/min | 0.3 nmol/min | 0.3 nmol/min |  | 25 nM |  |  | 
6 | N#Cc1c(O)nc(SCc2ccccc2)c2c1-c1ccccc1CC2 |  |  |  |  |  | 0.04 nmol/min | 0 nmol/min | 0.07 nmol/min |  | 50 nM |  | 5 nM | 386 nM
7 | N#Cc1ccc2c(C#N)c(O)nc(SCc3ccccc3Cl)c2c1 |  | 8 µg/mL (≈ 22.7 µM) |  |  |  | 0.25 nmol/min | 0.05 nmol/min | 0.04 nmol/min |  | 62 nM |  |  | 

Continued by falling IC50 [10], values first:

Row | IC50 [1] | solubility [2] | Cmax [3] | Tmax [4] | AUC(0-t) at 8 h [5] | Stability [6] | Stability [7] | Stability [8] | half-life [9] | IC50 [10] | IC50 [11] | IC50 [12] | IC50 [13] | SMILES
8 |  | 3 µg/mL (≈ 8.92 µM) |  |  |  | 0 nmol/min | 0.02 nmol/min | 0.02 nmol/min |  | 24 nM |  |  |  | N#Cc1ncccc1CSc1nc(O)c(C#N)c2ccc(F)cc12
9 |  | 2 µg/mL (≈ 6.08 µM) | 2300 nM | 4 h | 12 µM·h | 0.05 nmol/min | 0.02 nmol/min | 0.04 nmol/min |  | 21 nM | 2160 nM |  |  | N#Cc1c(=O)[nH]c(OCc2ccccc2Cl)c2cc(F)ccc12
10 |  | 1 µg/mL (≈ 3.06 µM) |  |  |  | 0.17 nmol/min | 0.2 nmol/min | 0.23 nmol/min |  | 19 nM |  |  |  | N#Cc1c(O)nc(SCc2ccccc2Cl)c2ccccc12
11 |  |  |  |  |  |  |  |  |  | 16 nM |  |  |  | N#Cc1c(O)nc(SCc2ccccc2)c2c1CCCC2
12 |  |  |  |  |  | 0.12 nmol/min | 0.08 nmol/min | 0.05 nmol/min |  | 10 nM |  |  |  | N#Cc1c(=O)[nH]c(SCc2ccccc2Cl)c2c(F)cccc12
13 |  |  |  |  |  | 0.03 nmol/min | 0.12 nmol/min | Unstable |  | 9 nM |  |  |  | N#Cc1ccc(F)c(CSc2nc(O)c(C#N)c3c2CCCC3)c1
14 |  | 1 µg/mL (≈ 2.9 µM) | 2900 nM | 4 h | 15 µM·h | 0.09 nmol/min | 0 nmol/min | 0.04 nmol/min |  | 7 nM | 2250 nM |  |  | N#Cc1c(O)nc(SCc2ccccc2Cl)c2cc(F)ccc12
15 |  |  |  |  |  | 0.24 nmol/min | 0.08 nmol/min | 0.13 nmol/min |  | 7 nM |  |  |  | N#Cc1c(O)nc(SCc2ccccc2Cl)c2cccc(F)c12
16 |  | 7 µg/mL (≈ 21.8 µM) |  |  |  | 0.15 nmol/min | 0.23 nmol/min | 0.25 nmol/min |  | 6 nM |  |  |  | N#Cc1ccccc1CSc1nc(O)c(C#N)c2c1CCCC2
